Assay results taken from patent publication US20200316089A1, “1,2-DIHYDRO-3H-PYRAZOL-3-ONE COMPOUNDS AND METHODS OF USING SAME” (Frequency Therapeutics, Inc., priority 2017, published 2020).

Columns and labels:
recombinant human GSK3α = recombinant human GSK3α (Homo sapiens, UniProt P49840); experiment: in vitro enzymatic assay (Kinase-Glo Max) for inhibition of GSK3α; assay type: biochemical; settings: 10 uM ATP, 0.1 mg/ml GSKtide, 30° C. 40 minutes; read-out: Potency GSK-3alpha
Method: (§1) Enzymatic activities of compounds of the present disclosure are tested with recombinant human GSK3 using an in vitro enzymatic assay for inhibition GSK3α and GSK3β.
(§2) The assay was performed using Kinase-Glo Max luminescence kinase assay kit (Promega). It measures kinase activity by quantitating the amount of ATP remaining in solution following a kinase reaction. The luminescent signal from the assay is correlated with the amount of ATP present and is inversely correlated with the amount of kinase activity. The compounds were diluted in 10% DMSO) and 5 μl of the dilution was added to a 50 μl reaction so that the final concentration of DMSO is 1% in all of reactions. The enzymatic reactions were conducted at 30° C. for 40 minutes. […] After the enzymatic reaction, 50 μl of Kinase-Glo Max Luminescence kinase assay solution (Promega) was added to each reaction and incubate the plate for 15 minutes at room temperature. Luminescence signal was measured using a BioTek Synergy 2 microplate reader.
(§3) Kinase activity assays were performed in duplicate at each concentration. The luminescence data were analyzed using the computer software, Graphpad Prism. The difference between luminescence intensities in the absence of Kinase (Lut) and in the presence of Kinase (Luc) was defined as 100% activity (Lut−Luc). […]

recombinant human GSK3β = recombinant human GSK3β (Homo sapiens, UniProt P49841); experiment: in vitro enzymatic assay (Kinase-Glo Max) for inhibition of GSK3β; assay type: biochemical; settings: 10 uM ATP
Sequence of recombinant human GSK3β (P49841 whole entry): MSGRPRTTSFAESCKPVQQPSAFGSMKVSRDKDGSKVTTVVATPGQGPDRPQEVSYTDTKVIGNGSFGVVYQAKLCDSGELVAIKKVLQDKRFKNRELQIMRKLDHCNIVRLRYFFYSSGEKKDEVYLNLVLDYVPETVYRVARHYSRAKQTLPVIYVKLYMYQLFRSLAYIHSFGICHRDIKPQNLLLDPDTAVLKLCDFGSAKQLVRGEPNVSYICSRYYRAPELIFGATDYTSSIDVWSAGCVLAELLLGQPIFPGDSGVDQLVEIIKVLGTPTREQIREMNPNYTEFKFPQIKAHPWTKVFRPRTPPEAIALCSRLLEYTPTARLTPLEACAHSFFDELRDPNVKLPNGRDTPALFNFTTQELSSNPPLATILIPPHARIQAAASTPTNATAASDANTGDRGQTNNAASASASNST
Method: as §1, §2, §3

[1] = test system: Lgr5-positive cochlear cells; experiment: Expansion of Lgr5-positive cells (cochlear stem cell expansion, Lgr5-GFP flow cytometry); assay type: cell-based; settings: 240 h; Lgr5-GFP mouse cochlear cells, 10 days in culture; read-out: Potency (Lgr5-positive cell expansion)
Method: Lgr5-EGFP-IRES-Cre-ER mice (Barker et al., 2007) (http://jaxmice.jax.org/strain/008875.html) are used to analyze the effects of small molecules on cochlear stem cell expansion.
Isolation of stem cells from the inner ear: All animal studies are conducted under an approved institutional protocol according to National Institutes of Health guidelines. For experiments with neonatal mice (postnatal days 1-3), the cochleae are dissected in HBSS and the organ of Corti are separated from the stria vascularis and the modiolus. The organs of Corti are then treated with Cell Recovery Solution (Corning) for 1 h to separate cochlear epithelium from the underlying mesenchyme. Epithelia are then collected and treated with TrypLE (Life Technologies) for 15-20 minutes at 37° C. Single cells obtained by mechanical trituration are filtered (40 μm) and suspended in Matrigel (Corning) for 3D culture. […]
Lgr5-positive cells are quantified after 10 days (D10) in culture in multiple conditions. […] The cells are then stained with propidium iodide (PI) and are analyzed using a flow cytometer for Lgr5-GFP expression. The number of GFP-positive cells and the percentage of GFP-positive cells are quantified.

Sequence of recombinant human GSK3α (P49840 whole entry): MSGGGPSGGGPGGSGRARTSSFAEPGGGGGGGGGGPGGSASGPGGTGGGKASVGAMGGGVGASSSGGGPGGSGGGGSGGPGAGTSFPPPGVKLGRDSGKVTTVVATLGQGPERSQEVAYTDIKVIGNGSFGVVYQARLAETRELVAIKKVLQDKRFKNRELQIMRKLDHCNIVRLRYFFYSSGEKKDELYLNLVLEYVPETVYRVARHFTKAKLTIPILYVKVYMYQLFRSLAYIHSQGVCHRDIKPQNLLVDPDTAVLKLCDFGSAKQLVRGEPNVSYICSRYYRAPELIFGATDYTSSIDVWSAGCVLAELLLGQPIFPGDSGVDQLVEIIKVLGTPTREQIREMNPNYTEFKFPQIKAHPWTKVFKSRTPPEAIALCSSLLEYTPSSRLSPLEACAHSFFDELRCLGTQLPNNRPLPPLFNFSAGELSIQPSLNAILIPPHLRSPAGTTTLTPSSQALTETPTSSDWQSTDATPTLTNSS

Row | Compound | IC50 (recombinant human GSK3α) [µM] | IC50 (recombinant human GSK3β; 0.1 mg/ml GSKtide, 30° C. 40 minutes, read-out: Potency GSK-3beta) [µM] | EC50 [1] [µM] | inhibition at 10 µM (recombinant human GSK3β; at 10 uM compound, read-out: Potency GSK-3beta: % inhibition) [%]
1 | O=C(N1CCCCC1)N1CCn2cc(-c3[nH][nH]c(=O)c3-c3cnc4ccccn34)c3cc(F)cc(c32)C1 [Compound I-4] | 0.348 | 0.706 | > 10 | –
2 | O=C(N1CCCCC1)N1CCn2cc(-c3c(-c4cnc5ccccn45)[nH][nH]c3=O)c3cc(F)cc(c32)C1 [Compound I-52] | 10 | – | > 10 | 34
